Laboratory results taken from patent US20230096766A1, “AMINO ACID HAVING FUNCTIONAL GROUP CAPABLE OF INTERMOLECULAR HYDROGEN BONDING, PEPTIDE COMPOUND CONTAINING SAME AND METHOD FOR PRODUCTION THEREOF” (Chugai Seiyaku Kabushiki Kaisha, priority 2018, published 2023).
Read-outs that look alike come from different tables or passages of the source. *1 amine or outer side, *2 acyl side, *3 side chain or, on linkers, in order; H or OH if unused. Where a SMILES comes first, the peptide text is derived from it. Bridges are numbered along the chain shown (N, C = ends). [ ]: non-standard residue; d: D form. The star is where a group is joined. ξ: configuration not given here. X1 = COc1cc(C[C@H](N[*:1])C(=O)[*:2])ccc1C(=O)NO; NMeAla(4-thiazolyl) = CN[C@@H](Cc1cscn1)C(=O)O; NMePhe(3-Cl) = CN[C@@H](Cc1cccc(Cl)c1)C(=O)O; hhPhe = N[C@@H](CCCc1ccccc1)C(=O)O; NMeF = CN[C@@H](Cc1ccccc1)C(=O)O; NMeGABA = CN(CCCC(=O)[*:2])[*:1]; NMeI = CC[C@H](C)[C@H](NC)C(=O)O; hPhe = N[C@@H](CCc1ccccc1)C(=O)O; 3Pal = N[C@@H](Cc1cccnc1)C(=O)O; NMeD = CN[C@@H](CC(=O)O)C(=O)O; NMeL = CN[C@@H](CC(C)C)C(=O)O; NMeV = CN[C@H](C(=O)O)C(C)C; NMeA = CN[C@@H](C)C(=O)O; Piperidide = C1CCN(*)CC1; dNMeA = CN[C@H](C)C(=O)O; NBuGly = CCCCNCC(=O)O; NPrGly = CCCNCC(=O)O; X2 = Fc1cncc(C*)c1; Bn = c1ccc(C*)cc1; ξS = NC(CO)C(=O)O; Sar = CNCC(=O)O; tBu = CC(C)(C)*

What was measured:
in vitro = conditions: human

Compound	Caco-2 (Caco-2; human) [cm/s]	Papp (in vitro; Caco-2, Caco-2 (cm/sec)) [×10⁻⁶ cm/s]	Caco-2 (Caco-2) [cm/s]	Caco-2 (cm/sec) Papp (Caco-2; human) [cm/s]	Papp (in vitro; Caco-2, Caco-2 (cm/sec) Papp) [×10⁻⁶ cm/s]
CCCCN1CC(=O)N(C)[C@@H](CC(C)C)C(=O)N[C@@H](COC(C)(C)C)C(=O)N(C)[C@@H]([C@@H](C)CC)C(=O)N(C)[C@@H](CC(C)C)C(=O)N[C@H](C(=O)N2CCCCC2)CC(=O)N[C@H](C)C(=O)N(C)[C@@H](Cc2ccccc2)C(=O)N[C@@H](Cc2ccc(C(=O)NO)c(OC)c2)C(=O)N(C)[C@@H](CC(C)C)C(=O)N[C@@H]([C@@H](C)O)C1=O [AP258] ([dA][NMeF][X1][NMeL]T[NBuGly][NMeL]S(tBu)[NMeI][NMeL]D-Piperidide; lactam N-11)	2e-08	0.03			
CC[C@H](C)[C@@H]1NC(=O)[C@H](Cc2ccccc2)N(C)C(=O)CN(C)C(=O)C[C@@H](C(=O)N2CCCCC2)NC(=O)[C@H]([C@@H](C)CC)N(C)C(=O)C(COCc2ccccc2)NC(=O)[C@H](CC(C)C)N(C)C(=O)[C@H](Cc2ccccc2)N(C)C(=O)CN(C)C(=O)[C@H]([C@@H](C)O)NC(=O)[C@H](CC(C)C)N(C)C1=O (stereo partly drawn) [pd178] ([Sar][NMeF]I[NMeL]T[Sar][NMeF][NMeL][ξS](Bn)[NMeI]D-Piperidide; lactam N-11)		2.5	2.5e-06		
CC(C)C[C@H]1C(=O)N[C@@H]([C@@H](C)O)C(=O)N(C)CC(=O)N(C)[C@@H](C(C)C)C(=O)N[C@@H](Cc2ccccc2)C(=O)N(C)[C@@H](Cc2cccc(Cl)c2)C(=O)N(C)[C@@H](CC(C)C)C(=O)N(C)[C@H](C(=O)N2CCCCC2)CC(=O)N2CCC[C@@H]2C(=O)N[C@@H](Cc2ccccc2)C(=O)N[C@@H](COC(C)(C)C)C(=O)N1C [pd163] ([dP]FS(tBu)[NMeL]T[Sar][NMeV]F[NMePhe(3-Cl)][NMeL][NMeD]-Piperidide; lactam N-11)		1.7	1.7e-06		
CCCN1CC(=O)N(C)[C@@H](CC(C)C)C(=O)N[C@@H](COC(C)(C)C)C(=O)N(C)[C@@H](Cc2ccccc2)C(=O)N(C)[C@@H](Cc2ccccc2)C(=O)N[C@H](C(=O)N2CCCCC2)CC(=O)N[C@H](C)C(=O)N(C)[C@@H](Cc2ccccc2)C(=O)N[C@@H](C(C)C)C(=O)N(C)[C@@H](CC(C)C)C(=O)N[C@@H]([C@@H](C)O)C1=O [pd194] ([dA][NMeF]V[NMeL]T[NPrGly][NMeL]S(tBu)[NMeF][NMeF]D-Piperidide; lactam N-11)		5.3	5.3e-06		
CC(C)C[C@@H]1NC(=O)[C@H](Cc2ccccc2)N(C)C(=O)[C@@H]2CCCN2C(=O)C[C@@H](C(=O)N2CCCCC2)N(C)C(=O)[C@H](Cc2ccccc2)N(C)C(=O)[C@H](Cc2ccccc2)N(C)C(=O)[C@H](COC(C)(C)C)NC(=O)[C@H](C(C)C)N(C)C(=O)CN(C)C(=O)[C@H]([C@@H](C)O)NC(=O)[C@H](CC(C)C)N(C)C1=O [pd196] (P[NMeF]L[NMeL]T[Sar][NMeV]S(tBu)[NMeF][NMeF][NMeD]-Piperidide; lactam N-11)		4	4e-06		
CC[C@H](C)[C@@H]1NC(=O)[C@H](Cc2ccccc2)N(C)C(=O)CN(C)C(=O)C[C@@H](C(=O)N2CCCCC2)NC(=O)[C@H](C)N(C)C(=O)[C@H](CCCc2ccccc2)NC(=O)[C@H](CC(C)C)N(C)C(=O)[C@H](Cc2ccccc2)N(C)C(=O)CN(C)C(=O)[C@H]([C@@H](C)O)NC(=O)[C@H](CC(C)C)N(C)C1=O [pd190] ([Sar][NMeF]I[NMeL]T[Sar][NMeF][NMeL][hhPhe][NMeA]D-Piperidide; lactam N-11)		1.5	1.5e-06		
CC(C)C[C@H]1C(=O)N[C@@H]([C@@H](C)O)C(=O)N(C)CC(=O)N(C)[C@@H](Cc2ccccc2)C(=O)N(C)[C@@H](CC(C)C)C(=O)N[C@@H](COC(C)(C)C)C(=O)N(C)[C@@H](CC(C)C)C(=O)N[C@H](C(=O)N2CCCCC2)CC(=O)N(C)CC(=O)N(C)[C@@H](Cc2ccccc2)C(=O)N[C@@H](COCc2ccccc2)C(=O)N1C [pd177] ([Sar][NMeF]S(Bn)[NMeL]T[Sar][NMeF][NMeL]S(tBu)[NMeL]D-Piperidide; lactam N-11)		3	3e-06		
CC[C@H](C)[C@H]1C(=O)N[C@@H]([C@@H](C)O)C(=O)N(C)CC(=O)N(C)[C@@H](CC(C)C)C(=O)N[C@H](C(=O)N2CCCCC2)CC(=O)N(C)[C@@H](C(C)C)C(=O)N[C@@H](COCc2cncc(F)c2)C(=O)N(C)[C@@H](CC(C)C)C(=O)N(C)[C@@H](Cc2ccccc2)C(=O)N[C@@H](CC(C)C)C(=O)N(C)[C@@H](Cc2ccccc2)C(=O)N1C [pd181] ([NMeV]S(X2)[NMeL][NMeF]L[NMeF][NMeI]T[Sar][NMeL]D-Piperidide; lactam N-11)		1.1	1.1e-06		
CC[C@H](C)[C@H]1C(=O)N[C@H](C(=O)N2CCCCC2)CC(=O)N(C)CC(=O)N(C)[C@@H](Cc2ccccc2)C(=O)N[C@@H](CCCc2ccccc2)C(=O)N(C)[C@@H](CC(C)C)C(=O)N[C@@H]([C@@H](C)O)C(=O)N(C)CC(=O)N(C)[C@@H](Cc2ccccc2)C(=O)N(C)[C@@H](CC(C)C)C(=O)N[C@@H](COC(C)(C)C)C(=O)N1C [pd189] ([Sar][NMeF][hhPhe][NMeL]T[Sar][NMeF][NMeL]S(tBu)[NMeI]D-Piperidide; lactam N-11)		1.8	1.8e-06		
CC(C)C[C@H]1C(=O)N[C@@H]([C@@H](C)O)C(=O)N(C)CC(=O)N(C)[C@@H](C(C)C)C(=O)N[C@@H](Cc2ccccc2)C(=O)N(C)[C@@H](Cc2cccc(Cl)c2)C(=O)N(C)[C@@H](CC(C)C)C(=O)N(C)[C@H](C(=O)N2CCCCC2)CC(=O)N(C)[C@H](C)C(=O)N[C@@H](Cc2ccccc2)C(=O)N[C@@H](COC(C)(C)C)C(=O)N1C [pd167] ([dNMeA]FS(tBu)[NMeL]T[Sar][NMeV]F[NMePhe(3-Cl)][NMeL][NMeD]-Piperidide; lactam N-11)		1.7	1.7e-06		
CC(C)C[C@@H]1NC(=O)[C@H](Cc2ccccc2)N(C)C(=O)[C@H]2CCCN2C(=O)C[C@@H](C(=O)N2CCCCC2)N(C)C(=O)[C@H](Cc2ccccc2)N(C)C(=O)[C@H](Cc2ccccc2)N(C)C(=O)[C@H](COC(C)(C)C)NC(=O)[C@H](C(C)C)N(C)C(=O)CN(C)C(=O)[C@H]([C@@H](C)O)NC(=O)[C@H](CC(C)C)N(C)C1=O [pd200] ([dP][NMeF]L[NMeL]T[Sar][NMeV]S(tBu)[NMeF][NMeF][NMeD]-Piperidide; lactam N-11)		2.6	2.6e-06		
CC[C@H](C)[C@H]1C(=O)N[C@@H]([C@@H](C)O)C(=O)N(C)CC(=O)N(C)[C@@H](CC(C)C)C(=O)N[C@H](C(=O)N2CCCCC2)CC(=O)N(C)[C@@H](C)C(=O)NC(COc2cccc(Cl)c2)C(=O)N(C)[C@@H](CC(C)C)C(=O)N(C)[C@@H](Cc2ccccc2)C(=O)N[C@@H](C)C(=O)N(C)[C@@H](Cc2ccccc2)C(=O)N1C (some centres unmarked) [pd188]	1.3e-06	1.8	1.3e-06		
CC(C)C[C@H]1C(=O)N(C)[C@@H](Cc2ccccc2)C(=O)N[C@H](C(=O)N2CCCCC2)CC(=O)N(C)[C@@H](C(C)C)C(=O)N[C@@H](C)C(=O)N(C)[C@@H](Cc2ccccc2)C(=O)N(C)[C@@H](CC(C)C)C(=O)N(C)CC(=O)N[C@@H]([C@@H](C)O)C(=O)N(C)[C@@H](C(C)C)C(=O)N[C@@H](CCc2ccccc2)C(=O)N1C [pd182] ([NMeV]A[NMeF][NMeL][Sar]T[NMeV][hPhe][NMeL][NMeF]D-Piperidide; lactam N-11)		2.6	2.6e-06		
CC(C)C[C@H]1C(=O)N[C@@H](CCCc2ccccc2)C(=O)N(C)[C@@H](Cc2ccccc2)C(=O)N(C)[C@@H](C(C)C)C(=O)N[C@H](C(=O)N2CCCCC2)CC(=O)N[C@H](C)C(=O)N(C)[C@@H](Cc2ccccc2)C(=O)N[C@@H](C(C)C)C(=O)N(C)[C@@H](CC(C)C)C(=O)N[C@@H]([C@@H](C)O)C(=O)N(C)CC(=O)N1C [pd193] ([dA][NMeF]V[NMeL]T[Sar][NMeL][hhPhe][NMeF][NMeV]D-Piperidide; lactam N-11)		1	1e-06		
CC(C)C[C@@H]1NC(=O)[C@H](Cc2ccccc2)N(C)C(=O)[C@H](C)N(C)C(=O)C[C@@H](C(=O)N2CCCCC2)NC(=O)[C@H](CC(C)C)N(C)C(=O)[C@H](Cc2ccccc2)N(C)C(=O)[C@H](Cc2ccccc2)NC(=O)[C@H](Cc2cscn2)N(C)C(=O)[C@H](C)N(C)C(=O)[C@H](CC(C)C)N(C)C(=O)[C@H]([C@@H](C)O)NC1=O [pd238] ([NMeA][NMeF]LT[NMeL][NMeA][NMeAla(4-thiazolyl)]F[NMeF][NMeL]D-Piperidide; lactam N-11)				8.8e-08	0.096
CC(C)C[C@H]1C(=O)N(C)[C@@H](C(C)C)C(=O)N[C@@H](Cc2ccccc2)C(=O)N[C@H](C(=O)N(C)[C@@H](Cc2ccccc2)C(=O)N[C@@H](C)C(=O)N2CCCCC2)CC(=O)N(C)CCCC(=O)N[C@@H](C(C)C)C(=O)N(C)[C@@H](CC(C)C)C(=O)N[C@@H]([C@@H](C)O)C(=O)N(C)[C@@H](Cc2ccccc2)C(=O)NCC(=O)N1C [pd198] ([NMeGABA]V[NMeL]T[NMeF]G[NMeL][NMeV]FD[NMeF]A-Piperidide; lactam N-10)		2.7	2.7e-06		
CC(C)C[C@@H]1NC(=O)[C@H](Cc2ccccc2)N(C)C(=O)[C@H](C)N(C)C(=O)C[C@@H](C(=O)N2CCCCC2)NC(=O)[C@H](C(C)C)N(C)C(=O)[C@H](Cc2ccccc2)N(C)C(=O)[C@H](COC(C)(C)C)NC(=O)[C@H](CC(C)C)N(C)C(=O)CN(C)C(=O)[C@H](Cc2cccnc2)NC(=O)[C@H](CC(C)C)N(C)C1=O [pd197] ([NMeA][NMeF]L[NMeL][3Pal][Sar][NMeL]S(tBu)[NMeF][NMeV]D-Piperidide; lactam N-11)		3	3e-06		
